The NIST ThermoML archive (doi:10.1016/j.jct.2018.06.007)

How the values were obtained:
[1] = xn = mol fraction of the nth substance listed; settings: 101 kPa, Liquid; for speed of sound: Frequency=2 MHz, Linear variable-path acoustic interferometer; for mass density: Pycnometric method
[2] = 101 kPa, Liquid; for speed of sound: Frequency=2 MHz, Linear variable-path acoustic interferometer; for mass density: Pycnometric method

CCN(CC)CCO [(diethylamino)ethanol] + CCCO
[1]
Settings	mass density, 293.15 K [kg/m3]	mass density, 303.15 K [kg/m3]	mass density, 313.15 K [kg/m3]	speed of sound, 293.15 K [m/s]	speed of sound, 303.15 K [m/s]	speed of sound, 313.15 K [m/s]
x1 = 0.0937	817.5	809.54	801.82	1247.7	1213.2	1178.9
x1 = 0.1994	830.99	822.96	815.1	1269	1234.4	1199.7
x1 = 0.3005	842.11	833.85	825.77	1287.6	1252.7	1217.3
x1 = 0.4048	851.86	843.48	835.1	1305	1269.5	1233.2
x1 = 0.5072	859.98	851.48	842.85	1320.1	1284.1	1247
x1 = 0.61	866.74	858.08	849.33	1333.3	1296.9	1259.2
x1 = 0.7093	872.27	863.47	854.7	1344	1307.3	1269.4
x1 = 0.801	876.7	867.78	858.95	1352.2	1315.3	1277
x1 = 0.9047	881.06	871.91	862.91	1360.1	1322.3	1282.5
x1 = 1	884.37	874.93	865.62	1366.5	1327.3	1285

CCCCO [butan-1-ol]
[2]
Settings	mass density [kg/m3]	speed of sound [m/s]
293.15 K	809.53	1261.9
303.15 K	802	1224.7
313.15 K	794.7	1188.8

CCCCO [butan-1-ol] + CCN(CC)CCO
[1], x2 = 0
Settings	mass density [kg/m3]	speed of sound [m/s]
293.15 K	809.53	1261.9
303.15 K	802	1224.7
313.15 K	794.7	1188.8

CCCO [propan-1-ol]
[2]
Settings	mass density [kg/m3]	speed of sound [m/s]
293.15 K	803.76	1227
303.15 K	795.82	1192.5
313.15 K	787.88	1157.7

CCCO [propan-1-ol] + CCN(CC)CCO
[1], x2 = 0
Settings	mass density [kg/m3]	speed of sound [m/s]
293.15 K	803.76	1227
303.15 K	795.82	1192.5
313.15 K	787.88	1157.7
